From patent US8618138B2, “Indole amide derivatives and related compounds for use in the treatment of neurodegenerative diseases” (Katholieke Universiteit Leuven, K.U. Leuven R&D, priority 2009, dated 2013)

Tested on: TAU and phospho-isoforms thereof
Assay: In-vivo inhibition of pathological TAU-phosphorylation, Western analysis of soluble brain protein fractions
Set-up: species or system Human TAU R406W transgenic mice
Conditions: TAU R406W transgenic mice, 35 mg/kg subcutaneously once-a-day for 4 weeks, vs vehicle, Western blot of soluble protein fraction
Description: Quantification of Western analyses of TAU and phospho-TAU species of the soluble protein fraction prepared from […] of all individual mice used in this study (n=10 for each treatment group). TAU signals of all individual mice were normalized against neuron specific enolase (NSE) using antibodies (monoclonal anti-NSE antibody, clone 37E4, Abcam) to correct for possible loading control differences. The graphs depict the mean normalised TAU signals±SEM. The TAU signals were obtained by using antibodies directed against:
(A) pan-TAU (anti-TAU monoclonal antibody (mAb) HT7, Thermo Scientific; detects all tau species independent of phosphorylation status),
(B) phosphorylated tau on pS202, T205 (AD2 anti-TAU antibody, Biorad) and unphosphorylated tau on pS202 (anti-TAU-1 antibody, clone PC1C6, Millipore), the graph depicts the ratio of AD2/TAU-1;
(C) phosphorylated tau on pT231 (AT180 anti-TAU mAb, Thermo Scientific), and
(D) phosphorylated tau on pT181 (AT270 anti-TAU mAb, Thermo Scientific).
Statistics: students two-tailed T-test*p<0.05, **p<0.01.
Human TAU R406W transgenic mice (Zhang et al, J. of Neuroscience 24(19):4657-4667, 2004) were treated once-a-day subcutaneously for 4 weeks with compound D5 (see table 1) dissolved in arachidin oil at a dose of 35 mg/kg. Correspondingly vehicle treated transgenics were included as controls. At the end of the treatment period mice were sacrificed and brainstem was stereotactically collected. Soluble protein fractions were prepared (Terwel et al, J Biol Chem 280(5):3963-73, 2005) from the brain stem and subjected to Western analysis using antibodies directed against TAU and several different phospho-isoforms thereof.

Row | Structure (SMILES) | Phosphorylation of threonine residue 181 of TAU (AT270, FIG. 3 D) | TAU phosphorylated at serine 202 and tyrosine 205 (ratio AD2/TAU-1, FIG. 3 B) | TAU phosphorylated at tyrosine residue 231 (AT180, FIG. 3 C) | total TAU levels (pan-TAU, HT7 antibody, FIG. 3 A)
1 | O=C(NCCc1c[nH]c2ccc(Cl)cc12)c1cc(Cc2cc(F)ccc2F)on1 [Example D5, N-(2-(5-chloro-1H-indol-3-yl)ethyl)-5-(2,5-difluorobenzyl)isoxazole-3-carboxamide] | not affected | robust and statistically significant reduction | robust and statistically significant reduction | not statistically significant affected

Same assay, conditions: Western analyses of TAU and phospho-TAU species, soluble protein fraction, n=10 per group

Row | Structure (SMILES) | pathological TAU-species in-vivo (FIG. 3 legend)
2 | O=C(NCCc1c[nH]c2ccc(Cl)cc12)c1cc(Cc2cc(F)ccc2F)on1 [Example D5, N-(2-(5-chloro-1H-indol-3-yl)ethyl)-5-(2,5-difluorobenzyl)isoxazole-3-carboxamide] | reduces pathological TAU-species in-vivo

Tested on: M17-TAU P301L cells
Assay: TAU cytotoxicity assay: LDH leakage of retinoic acid incubated M17-TAU P301L cells
Type: cell-based, human
Conditions: Homo sapiens, 168 h, reduction of LDH activity of retinoic acid incubated M17-TAU P301L cells, 7 days
How it was run: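 M17 neuroblastoma cells stably expressing human TAU P301L, seeded at 2500 cells/cm2 in Optimem with 1% FCS, then given 2.5 μM retinoic acid (stock before 1:1 addition) and grown 7 days at 37 °C. Cytotoxicity read as LDH leaked into medium; EC50 derived from these measurements.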

Row | Structure (SMILES) | EC50
3 | O=C(NCCc1c[nH]c2ccc(Cl)cc12)c1cc(Cc2cc(F)ccc2F)on1 [Example D5, N-(2-(5-chloro-1H-indol-3-yl)ethyl)-5-(2,5-difluorobenzyl)isoxazole-3-carboxamide] | 12 nM
4 | Cc1cccc(N2CCC(C(=O)NCCc3c[nH]c4ccc(Cl)cc34)C2=O)c1 (centres unmarked) [Example D159, N-(2-(5-chloro-1H-indol-3-yl)ethyl)-2-oxo-1-m-tolylpyrrolidine-3-carboxamide] | 900 nM
5 | O=C(NCCc1c[nH]c2ccc(Cl)cc12)c1noc(Cc2ccc(Cl)c(Cl)c2)n1 [Example D174, N-(2-(5-chloro-1H-indol-3-yl)ethyl)-5-(3,4-dichlorobenzyl)-1,2,4-oxadiazole-3-carboxamide] | 282 nM
6 | O=C(c1cc(Cc2cc(F)ccc2F)on1)N1CCC(c2c[nH]c3ccccc23)CC1 [Example D138, (4-(1H-indol-3-yl)piperidin-1-yl)(5-(2,5-difluorobenzyl)isoxazol-3-yl)methanone] | 418 nM
7 | O=C(NCCc1c[nH]c2ccc(Cl)cc12)C1CCN(c2cccc(F)c2)C1=O (centres unmarked) [Example D65, N-(2-(5-chloro-1H-indol-3-yl)ethyl)-1-(3-fluorophenyl)-2-oxopyrrolidine-3-carboxamide] | 321 nM
8 | O=C(NCCc1c[nH]c2ccc(Cl)cc12)c1cc(Cn2cccn2)on1 [Example D42, 5-((1H-pyrazol-1-yl)methyl)-N-(2-(5-chloro-1H-indol-3-yl)ethyl)isoxazole-3-carboxamide] | 92 nM
9 | CCc1ccc(N2CCC(C(=O)NCCc3c[nH]c4ccc(C)cc34)C2=O)cc1 (centres unmarked) [Example D48, 1-(4-ethylphenyl)-N-(2-(5-methyl-1H-indol-3-yl)ethyl)-2-oxopyrrolidine-3-carboxamide] | 138 nM
10 | CCN(CC)Cc1cc(C(=O)NCCc2c[nH]c3ccc(Cl)cc23)no1 [Example D125, N-(2-(5-chloro-1H-indol-3-yl)ethyl)-5-((diethylamino)methyl)isoxazole-3-carboxamide] | 347 nM
11 | O=C(NCCc1c[nH]c2ccc(Cl)cc12)c1noc(Cc2ccc(F)cc2)n1 [Example D171, N-(2-(5-chloro-1H-indol-3-yl)ethyl)-5-(4-fluorobenzyl)-1,2,4-oxadiazole-3-carboxamide] | 32 nM
12 | CC(C)(C)c1ccc(Cc2nc(C(=O)NCCc3c[nH]c4ccc(Cl)cc34)no2)cc1 [Example D176, 5-(4-tert-butylbenzyl)-N-(2-(5-chloro-1H-indol-3-yl)ethyl)-1,2,4-oxadiazole-3-carboxamide] | 100 nM
13 | Cn1nc(C(=O)NCCc2c[nH]c3ccc(Cl)cc23)cc1-c1cccs1 [Example D15, N-(2-(5-chloro-1H-indol-3-yl)ethyl)-1-methyl-5-(thiophen-2-yl)-1H-pyrazole-3-carboxamide] | 21 nM
14 | Cc1nc(-c2ccccc2)sc1C(=O)NCCc1c[nH]c2ccc(Cl)cc12 [Example D46, N-(2-(5-chloro-1H-indol-3-yl)ethyl)-4-methyl-2-phenylthiazole-5-carboxamide] | 123 nM
15 | O=C(NCCc1c[nH]c2ccc(Cl)cc12)c1noc(Cc2cccc(C(F)(F)F)c2)n1 [Example D186, N-(2-(5-chloro-1H-indol-3-yl)ethyl)-5-(3-(trifluoromethyl)benzyl)-1,2,4-oxadiazole-3-carboxamide] | 119 nM
16 | O=C(NCCc1c[nH]c2ccc(Cl)cc12)C1CCN(c2c(F)cccc2F)C1=O (centres unmarked) [Example D151, N-(2-(5-chloro-1H-indol-3-yl)ethyl)-1-(2,6-difluorophenyl)-2-oxopyrrolidine-3-carboxamide] | 561 nM
17 | O=C(CCc1c[nH]c2ccc(Cl)cc12)N1CCN(Cc2ccccc2)C1 [Example D126, 1-(3-benzylimidazolidin-1-yl)-3-(5-chloro-1H-indol-3-yl)propan-1-one] | 357 nM
18 | O=C(NCCc1c[nH]c2ccc(Cl)cc12)C1=N[C@H](Cc2ccccc2)CO1 [Example D81, (R)-4-benzyl-N-(2-(5-chloro-1H-indol-3-yl)ethyl)-4,5-dihydrooxazole-2-carboxamide] | 917 nM
19 | O=C(NCCc1c[nH]c2ccc(Cl)cc12)C1CC(c2ccccc2)=NO1 (centres unmarked) [Example D50, N-(2-(5-chloro-1H-indol-3-yl)ethyl)-3-phenyl-4,5-dihydroisoxazole-5-carboxamide] | 151 nM
20 | COc1ccc(OC)c(Cc2nc(C(=O)NCCc3c[nH]c4ccc(Cl)cc34)no2)c1 [Example D179, N-(2-(5-chloro-1H-indol-3-yl)ethyl)-5-(2,5-dimethoxybenzyl)-1,2,4-oxadiazole-3-carboxamide] | 51 nM
21 | O=C(NCCc1c[nH]c2ccc(Cl)cc12)c1noc(Cc2c(F)cccc2F)n1 [Example D188, N-(2-(5-chloro-1H-indol-3-yl)ethyl)-5-(2,6-difluorobenzyl)-1,2,4-oxadiazole-3-carboxamide] | 41 nM
22 | Cn1ccc2cc(N3CCC(C(=O)NCCc4c[nH]c5ccc(Cl)cc45)C3=O)ccc21 (centres unmarked) [Example D167, N-(2-(5-chloro-1H-indol-3-yl)ethyl)-1-(1-methyl-1H-indol-5-yl)-2-oxopyrrolidine-3-carboxamide] | 506 nM
23 | O=C(NCCc1c[nH]c2ccc(Cl)cc12)c1ncc(-c2ccccc2)o1 [Example D53, N-(2-(5-chloro-1H-indol-3-yl)ethyl)-5-phenyloxazole-2-carboxamide] | 171 nM
24 | Cc1noc(-c2ccccc2)c1C(=O)NCCc1c[nH]c2ccc(Cl)cc12 [Example D115, N-(2-(5-chloro-1H-indol-3-yl)ethyl)-3-methyl-5-phenylisoxazole-4-carboxamide] | 269 nM
25 | O=C(NCCc1c[nH]c2ccc(Cl)cc12)c1cc(Cc2ccc(C(F)(F)F)cc2)on1 [Example D9, N-(2-(5-chloro-1H-indol-3-yl)ethyl)-5-(4-(trifluoromethyl)benzyl)isoxazole-3-carboxamide] | 16 nM
26 | O=C(NCCc1c[nH]c2ccc(Cl)cc12)C1CCN(c2ccccc2F)C1=O (centres unmarked) [Example D79, N-(2-(5-chloro-1H-indol-3-yl)ethyl)-1-(2-fluorophenyl)-2-oxopyrrolidine-3-carboxamide] | 857 nM
27 | Cc1oc(-c2ccccc2)nc1C(=O)NCCc1c[nH]c2ccc(Cl)cc12 [Example D62, N-(2-(5-chloro-1H-indol-3-yl)ethyl)-5-methyl-2-phenyloxazole-4-carboxamide] | 237 nM
28 | O=C(NCCc1c[nH]c2ccc(Cl)cc12)c1cc(CN2CCCC2)on1 [Example D61, N-(2-(5-chloro-1H-indol-3-yl)ethyl)-5-(pyrrolidin-1-ylmethyl)isoxazole-3-carboxamide] | 227 nM
29 | O=C(NCCc1c[nH]c2ccc(Cl)cc12)N1CCC(c2ccccc2)C1 (centres unmarked) [Example D63, N-(2-(5-chloro-1H-indol-3-yl)ethyl)-3-phenylpyrrolidine-1-carboxamide] | 304 nM
